Legend:
corn = assay: Test A pre-/postemergence greenhouse test; type: in vivo, Zea mays; conditions: for Corn plant response rating: 0 to 100 scale; for Plant response rating, Corn: 0 to 100 scale where 0 is no effect and 100 is complete control
Method in brief: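 Pre: directed soil spray on seeded loam/sand. Post: foliar spray, plants 2–10 cm, 1–2 leaf stage, applied concurrently. Vehicle: non-phytotoxic solvent + surfactant. Greenhouse ~10 d; visual injury rating vs untreated controls.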

blackgrass = assay: Test C pre-/postemergence test; type: in vivo, Alopecurus myosuroides
Method in brief: (§1)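 Seeds were planted and treated preemergence with test chemical in a non-phytotoxic solvent mixture containing surfactant. Postemergence applications of the same formulation went onto plants 2 to 18 cm tall (1- to 4-leaf stage). A dash marks no test result.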

green foxtail = assay: Test C pre-/postemergence test; type: in vivo, Setaria viridis
Method in brief: as §1

common ragweed = assay: Test C pre-/postemergence test; type: in vivo, Ambrosia elation
Method in brief: as §1

bermudagrass = assay: Test F preemergence test; type: in vivo, Cynodon dactylon; conditions: scale 0 to 100
Method in brief: (§2)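 Visual ratings relative to controls, taken after 14 to 21 days in a greenhouse. Test chemicals, formulated in a surfactant-containing non-phytotoxic solvent mixture, were applied preemergence to sown seeds or postemergence to sugarcane plants.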

Surinam grass = assay: Test F preemergence test; type: in vivo, Brachiaria decumbens; conditions: scale 0 to 100
Method in brief: as §2

kochia = assay: Test F preemergence test; type: in vivo, Kochia scoparia; conditions: scale 0 to 100
Method in brief: as §2

mustard = assay: Test F preemergence test; type: in vivo, Brassica nigra; conditions: scale 0 to 100
Method in brief: as §2

dallisgrass = assay: Test F preemergence test; type: in vivo, Paspalum dilatatum; conditions: scale 0 to 100
Method in brief: as §2

prickly sida = assay: Test F preemergence test; type: in vivo, Sida spinosa; conditions: scale 0 to 100
Method in brief: as §2

broadleaf signalgrass = assay: Test F preemergence test; type: in vivo, Brachiaria platyphylla; conditions: scale 0 to 100
Method in brief: as §2

Virginia dayflower = assay: Test F preemergence test; type: in vivo, Commelina virginica; conditions: scale 0 to 100
Method in brief: as §2

quackgrass = assay: Test F preemergence test; type: in vivo, Elytrigia repens; conditions: scale 0 to 100
Method in brief: as §2

common mallow = assay: Test F preemergence test; type: in vivo, Malva sylvestris; conditions: scale 0 to 100
Method in brief: as §2

[1] = Postemergence, 500 g ai/ha, 0 is no effect, 100 is complete control
[2] = Preemergence, 125 g ai/ha, 0 no effect, 100 complete control
[3] = 62 g ai/ha, Preemergence, scale 0 to 100
[4] = Preemergence, 31 g ai/ha, scale 0 to 100 (0 no effect, 100 complete control)
[5] = 125 g ai/ha, preemergence, scale 0 (no effect) to 100 (complete control)
[6] = Postemergence, 62 g ai/ha, scale 0 to 100, 0 no effect, 100 complete control
[7] = Postemergence, 125 g ai/ha, scale 0 to 100, 0 no effect, 100 complete control
[8] = Postemergence, 250 g ai/ha, scale 0 to 100, 0 no effect, 100 complete control
[9] = preemergence, 250 g ai/ha, scale 0 (no effect) to 100 (complete control)

Structure (SMILES): Cc1cc[n+]([O-])c(S(=O)(=O)C(Cl)c2c(C(F)(F)F)nn(C)c2Cl)c1 (racemic) [Compound 22]
- Corn plant response rating (corn; Postemergence, 125 g ai/ha, 0 is no effect, 100 is complete control): 0
- Corn plant response rating (corn; [1]): 30
- Corn plant response rating (corn; [2]): 0
- Plant response rating, Corn (corn; Preemergence, 500 g ai/ha): 20
- Blackgrass plant response rating (blackgrass; [3]): 95
- Plant response rating, Blackgrass (blackgrass; [4]): 55
- Plant response rating (0 to 100), Blackgrass (blackgrass; Preemergence, 250 g ai/ha): 98
- Blackgrass plant response rating (blackgrass; preemergence, 125 g ai/ha, scale 0 (no effect) to 100 (complete control)): 95
- Foxtail, Green plant response rating (green foxtail; [3]): 100
- Plant response rating, Foxtail, Green (green foxtail; [4]): 100
- Plant response rating (0 to 100), Foxtail, Green (green foxtail; Preemergence, 250 g ai/ha): 100
- Ragweed plant response rating (common ragweed; [3]): 80
- Plant response rating, Ragweed (common ragweed; [4]): 0
- Bermudagrass plant response rating (bermudagrass; 62 g ai/ha, Preemergence): 80
- Bermudagrass plant response rating (bermudagrass; 125 g ai/ha, preemergence): 90
- Plant response rating, Bermudagrass (bermudagrass; Preemergence, 16 g ai/ha): 0
- Plant response rating, Bermudagrass (bermudagrass; Preemergence, 31 g ai/ha): 35
- Surinam Grass plant response rating (Surinam grass; 62 g ai/ha, Preemergence): 65
- Surinam Grass plant response rating (Surinam grass; 125 g ai/ha, preemergence): 90
- Plant response rating, Surinam Grass (Surinam grass; Preemergence, 31 g ai/ha): 0
- Kochia plant response rating (kochia; 62 g ai/ha, Preemergence): 100
- Kochia plant response rating (kochia; 125 g ai/ha, preemergence): 98
- Plant response rating, Kochia (kochia; Preemergence, 16 g ai/ha): 98
- Plant response rating, Kochia (kochia; Preemergence, 31 g ai/ha): 100
- Black Mustard plant response rating (mustard; 62 g ai/ha, Preemergence): 50
- Black Mustard plant response rating (mustard; 125 g ai/ha, preemergence): 80
- Plant response rating, Black Mustard (mustard; Preemergence, 16 g ai/ha): 0
- Plant response rating, Black Mustard (mustard; Preemergence, 31 g ai/ha): 20
- Dallisgrass plant response rating (dallisgrass; 62 g ai/ha, Preemergence): 90
- Dallisgrass plant response rating (dallisgrass; 125 g ai/ha, preemergence): 100
- Plant response rating, Dallisgrass (dallisgrass; Preemergence, 16 g ai/ha): 0
- Plant response rating, Dallisgrass (dallisgrass; Preemergence, 31 g ai/ha): 20
- Prickly Sida plant response rating (prickly sida; 62 g ai/ha, Preemergence): 40
- Prickly Sida plant response rating (prickly sida; 125 g ai/ha, preemergence): 80
- Plant response rating, Prickly Sida (prickly sida; Preemergence, 16 g ai/ha): 0
- Plant response rating, Prickly Sida (prickly sida; Preemergence, 31 g ai/ha): 40
- Signalgrass plant response rating (broadleaf signalgrass; 62 g ai/ha, Preemergence): 60
- Signalgrass plant response rating (broadleaf signalgrass; 125 g ai/ha, preemergence): 80
- Plant response rating, Signalgrass (broadleaf signalgrass; Preemergence, 31 g ai/ha): 50
- Dayflower plant response rating (Virginia dayflower; 62 g ai/ha, Preemergence): 40
- Dayflower plant response rating (Virginia dayflower; 125 g ai/ha, preemergence): 100
- Plant response rating, Dayflower (Virginia dayflower; Preemergence, 16 g ai/ha): 0
- Plant response rating, Dayflower (Virginia dayflower; Preemergence, 31 g ai/ha): 0
- Quackgrass plant response rating (quackgrass; 62 g ai/ha, Preemergence): 20
- Quackgrass plant response rating (quackgrass; 125 g ai/ha, preemergence): 60
- Plant response rating, Quackgrass (quackgrass; Preemergence, 16 g ai/ha): 0
- Plant response rating, Quackgrass (quackgrass; Preemergence, 31 g ai/ha): 10
- Mallow plant response rating (common mallow; 62 g ai/ha, Preemergence): 65
- Mallow plant response rating (common mallow; 125 g ai/ha, preemergence): 65
- Plant response rating, Mallow (common mallow; Preemergence, 16 g ai/ha): 0
- Plant response rating, Mallow (common mallow; Preemergence, 31 g ai/ha): 0

Structure (SMILES): Cn1nc(C(F)(F)F)c(C[S+]([O-])c2ccc(F)c[n+]2[O-])c1OCC(F)(F)F (centres unmarked) [Compound 67]
- Plant response rating, Corn (corn; Postemergence, 125 g ai/ha): 60
- Corn plant response rating (corn; [1]): 90
- Corn plant response rating (corn; [2]): 0
- Plant response rating, Corn (corn; Preemergence, 500 g ai/ha): 80
- Blackgrass plant response rating (blackgrass; [3]): 100
- Blackgrass plant response rating (blackgrass; [5]): 100
- Plant response rating (0 to 100), Blackgrass (blackgrass; Postemergence, 31 g ai/ha): 30
- Plant response rating, Blackgrass (blackgrass; [6]): 80
- Plant response rating, Blackgrass (blackgrass; [7]): 90
- Plant response rating, Blackgrass (blackgrass; [8]): 90
- Plant response rating, Blackgrass (blackgrass; [4]): 90
- Blackgrass plant response rating (blackgrass; [9]): 100
- Foxtail, Green plant response rating (green foxtail; [3]): 100
- Foxtail, Green plant response rating (green foxtail; [5]): 100
- Plant response rating (0 to 100), Foxtail, Green (green foxtail; Postemergence, 31 g ai/ha): 0
- Plant response rating, Foxtail, Green (green foxtail; [6]): 45
- Plant response rating, Foxtail, Green (green foxtail; [7]): 60
- Plant response rating, Foxtail, Green (green foxtail; [8]): 90
- Plant response rating, Foxtail, Green (green foxtail; [4]): 100
- Foxtail, Green plant response rating (green foxtail; [9]): 100
- Ragweed plant response rating (common ragweed; [3]): 100
- Ragweed plant response rating (common ragweed; [5]): 100
- Plant response rating (0 to 100), Ragweed (common ragweed; Postemergence, 31 g ai/ha): 0
- Plant response rating (0 to 100), Ragweed (common ragweed; Postemergence, 62 g ai/ha): 0
- Plant response rating, Ragweed (common ragweed; [7]): 50
- Plant response rating, Ragweed (common ragweed; [8]): 55
- Plant response rating, Ragweed (common ragweed; [4]): 100
- Ragweed plant response rating (common ragweed; [9]): 100
- Plant response rating, Bermudagrass (bermudagrass; 16 g ai/ha, preemergence): 20
- Bermudagrass plant response rating (bermudagrass; 62 g ai/ha, Preemergence): 98
- Bermudagrass plant response rating (bermudagrass; 125 g ai/ha, preemergence): 100
- Plant response rating, Bermudagrass (bermudagrass; Preemergence, 31 g ai/ha): 75
- Plant response rating, Surinam Grass (Surinam grass; 16 g ai/ha, preemergence): 75
- Surinam Grass plant response rating (Surinam grass; 125 g ai/ha, preemergence): 100
- Plant response rating, Surinam Grass (Surinam grass; Preemergence, 62 g ai/ha): 100
- Plant response rating, Surinam Grass (Surinam grass; Preemergence, 31 g ai/ha): 95
- Plant response rating, Kochia (kochia; 16 g ai/ha, preemergence): 0
- Kochia plant response rating (kochia; 62 g ai/ha, Preemergence): 100
- Kochia plant response rating (kochia; 125 g ai/ha, preemergence): 100
- Plant response rating, Kochia (kochia; Preemergence, 31 g ai/ha): 60
- Plant response rating, Black Mustard (mustard; 16 g ai/ha, preemergence): 0
- Black Mustard plant response rating (mustard; 62 g ai/ha, Preemergence): 100
- Black Mustard plant response rating (mustard; 125 g ai/ha, preemergence): 100
- Plant response rating, Black Mustard (mustard; Preemergence, 31 g ai/ha): 75
- Plant response rating, Dallisgrass (dallisgrass; 16 g ai/ha, preemergence): 0
- Dallisgrass plant response rating (dallisgrass; 62 g ai/ha, Preemergence): 95
- Dallisgrass plant response rating (dallisgrass; 125 g ai/ha, preemergence): 100
- Plant response rating, Dallisgrass (dallisgrass; Preemergence, 31 g ai/ha): 40
- Plant response rating, Prickly Sida (prickly sida; 16 g ai/ha, preemergence): 0
- Prickly Sida plant response rating (prickly sida; 62 g ai/ha, Preemergence): 90
- Prickly Sida plant response rating (prickly sida; 125 g ai/ha, preemergence): 98
- Plant response rating, Prickly Sida (prickly sida; Preemergence, 31 g ai/ha): 65
- Plant response rating, Signalgrass (broadleaf signalgrass; 16 g ai/ha, preemergence): 0
- Signalgrass plant response rating (broadleaf signalgrass; 125 g ai/ha, preemergence): 98
- Plant response rating, Signalgrass (broadleaf signalgrass; Preemergence, 62 g ai/ha): 90
- Plant response rating, Signalgrass (broadleaf signalgrass; Preemergence, 31 g ai/ha): 30
- Plant response rating, Dayflower (Virginia dayflower; 16 g ai/ha, preemergence): 50
- Plant response rating, Quackgrass (quackgrass; 16 g ai/ha, preemergence): 60
- Quackgrass plant response rating (quackgrass; 62 g ai/ha, Preemergence): 85
- Quackgrass plant response rating (quackgrass; 125 g ai/ha, preemergence): 98
- Plant response rating, Quackgrass (quackgrass; Preemergence, 31 g ai/ha): 75
- Plant response rating, Mallow (common mallow; 16 g ai/ha, preemergence): 0
- Mallow plant response rating (common mallow; 62 g ai/ha, Preemergence): 100
- Mallow plant response rating (common mallow; 125 g ai/ha, preemergence): 100
- Plant response rating, Mallow (common mallow; Preemergence, 31 g ai/ha): 15

Source: patent publication US20100298141A1, “SUBSTITUTED PYRIDINE N-OXIDE HERBICIDES” (E. I. DU PONT DE NEMOURS AND COMPANY, priority 2007, published 2010)
